Measurements reported in US8933070B2, “Methods of targeting PTEN mutant diseases and compositions therefor” (University Health Network, priority 2010, dated 2015).

Legend:
[1] = test system: AMPKalpha; test: Kinase selectivity assay (CEREP, HTRF); format: biochemical, human
Procedure: The inhibitory activity of selected compounds was evaluated against a panel of 45 different kinase enzymes by CEREP, France. The assays were performed using standard HTRF assay methods as documented by CEREP against the human orthologues of Abl kinase, Akt1/PKBa, AMPKa, BMX kinase (Etk), Brk, CaMK2a, CaMK4, CDC2/CDK1 (cycB), CHK1, CHK2, c-Met kinase, CSK, EphB4 kinase, ERK1, ERK2 (P42mapk), FGFR2 kinase, FGFR4 kinase, FLT-1 kinase (VEGFR1), FLT-3 kinase, Fyn kinase, IGF1R kinase, IRK (InsR), JNK 2, KDR kinase (VEGFR2), Lck kinase, Lyn kinase, MAPKAPK2, MEK1/MAP2K1, p38a kinase, p38d kinase, p38g kinase, PDGFRb kinase, PDK1, PKA, PKCa, PKCb1, PKCb2, PKCg, Ret kinase, ROCK2, RSK2, Src kinase, Syk, and TRKA. The % Inhibition was determined by the formula; % Inhibition=100×(1−(experimental value−background value)/(high activity control−background value)).

[2] = test system: HCT116 p53^+/+ colon cancer cell line; test: Cell growth inhibition, SRB assay, extended panel; format: cell-based; details: Homo sapiens, HCT-116, read-out: GI50 Range HCT116 p53^+/+
Procedure: (§1) Breast cancer cells (MCF-7, MDA-MB-468 and HCC1954), colon cancer cells (SW620) and lung cancer cells (A549), together with human mammary epithelial primary cells (HMEC) were seeded (1000 to 4000 per 80 μl per well depending on the cell growth rate) into 96-well plates 24 hours before compound overlay. Compounds were prepared as 10 mM stock solutions in 100% DMSO which were diluted with DMEM (Dulbecco's Modified Eagle's Medium) cell growth Medium (Invitrogen, Canada) containing 10% FBS (Fetal Bovine Serum) to concentrations ranging from 50 nM to 250 μM. Aliquots (20 μl) from each concentration were overlaid to 80 μl of the pre-seeded cells in the 96-plates to make final concentrations of 10 nM to 50 μM. The cells were cultured for 5 days before the Sulforhodamine B (SRB) assay was performed to determine the compound's cell growth inhibition activity.
(§2) Sulforhodamine B (Sigma, Canada) is a water-soluble dye that binds to the basic amino acids of cellular proteins. Thus, colorimetric measurement of the bound dye provides an estimate of the total protein mass that is related to the cell number. The cells are fixed in situ by gently aspirating off the culture media and adding 50 μl ice cold 10% Trichloroacetic Acid (TCA) per well and incubated at 4° C. for 30-60 min. The plates are washed with water five times and allowed to air dry for 5 min. Addition of 50 μl 0.4% (w/v) SRB solution in 1% (v/v) acetic acid to each well and incubatation for […] at RT completes the staining reaction. Following staining, plates are washed four times with 1% acetic acid to remove unbound dye and then allowed to air dry for 5 min. The stain is solubilized with 100 μl of 10 mM Tris pH 10.5 per well. Absorbance is read at 570 nm.
(§3) The percentage (%) of relative growth inhibition was calculated by comparing to DMSO-treated only cells (100%). GI50's were determined for compounds with cytotoxic activity. The GI50 was calculated using GraphPad PRISM software (GraphPad Software, Inc., USA).
(§4) In addition to the cell lines tested as described above, selected compounds have been assayed against an extended panel. These include: breast cancer cell lines (T-47D, MDA-MB-231, Hs578T, 8T-474, SKBr-3 and HCC1954), a lung cancer cell line (H358), brain cancer cell lines (A172, Hs683 and SK-N-SH), colon cancer cell lines (Colo 205, HCT-15, HCT116 p53^+/+ and HCT116 p53^−/−), ovarian cancer cell lines (OVCAR-3, SK-OV-3 and SW626), a melanoma cell line (518A2), a prostate cancer cell line (PC-3) and an immortalized breast cell line (184A1). The SRB assay described above was used to assay test compounds against the extended panel (Table 6).

[3] = test system: HCT116 p53^−/− colon cancer cell line; test: Cell growth inhibition, SRB assay, extended panel; format: cell-based; details: Homo sapiens, HCT-116, read-out: GI50 Range HCT116 p53^−/−
Procedure: as §1, §2, §3, §4

Compound | % Inhibition at 10 μM Concentration [1] [%] | GI50 [2] [µM] | GI50 [3] [µM]
CN(C)Cc1ccc(/C=C/c2n[nH]c3cc([C@H]4C[C@@]45C(=O)Nc4ccccc45)ccc23)cc1 (racemic) [Compound 35] | 69 | – | –
COc1ccc2c(c1)/C(=C\c1ccc3c(/C=C/c4ccc(N5CCN(C)CC5)nc4)n[nH]c3c1)C(=O)N2 [Compound 3] | – | < 5 | < 5
